We go through eleven compounds from patent publication US20230218548A1 (priority 2020, published 2023).

Where two headings read alike, the source gives them in different places.

In one series the test system is SARS-CoV-2. Briefly: microbe, parasite or virus in culture. It is filed as cell-based, SARS-CoV-2 (USA-WA1/2020).
Series [1] addresses SARS-CoV-2 envelope (E) protein (Severe acute respiratory syndrome coronavirus 2, UniProt P0DTC4). It is filed as cell-based.
The subject of a further series is HeLa-ACE2 cells. It is filed as cell-based. As to conditions: host cell toxicity, 24 h, read-out: HeLa-ACE2 EC50. As to the method: Compounds were prepared and plated in 384-well plates as for the infection assay. HeLa-ACE2 cells were seeded in the assay-ready plates at 1.6×10^3 cells/well in assay medium, and plates were incubated for 24 h at 37° C. with 5% CO2. To assess cell viability, the Image-IT DEAD green reagent (Thermo Fisher, 110291) was used according to manufacturer's instructions. Cells were fixed with 4% paraformaldehyde (PFA) and counterstained with DAPI. Fixed cells were imaged using the ImageXpress Micro Confocal High-Content Imaging System (Molecular Devices) with a 10x objective, and total live cells per well quantified in the acquired images using the Live Dead Application Module (MetaXpress).
The in vitro infection assay and the host cell cytotoxicity counterscreen data were uploaded to Genedata Screener, Version 16.0. Data were normalized to neutral (DMSO) […] inhibitor controls (2.5 μM remdesivir for antiviral effect, and 10 μM puromycin for infected host cell toxicity). For the uninfected host cell cytotoxicity counterscreen, 10 μM puromycin (Sigma) was used as a positive control. For dose-response experiments, compounds were tested in technical triplicates, and dose curves were fitted with the four parameter Hill Equation. Replicate data were analyzed using median condensing.

The target in another series is ACE2 (Homo sapiens, UniProt Q9BYF1). The experiment in a line: Mass spectrometry analysis of S-nitrosylated ACE2 protein. In kind it is cell-based. As to conditions: after exposure to SNOC. As to the method: Biotin switch was performed as described above. […] The samples were desalted using a ZebaSpin desalting column (Thermo Scientific) pre-equilibrated with PBS, and biotinylated ACE2 protein was immunoprecipitated as described above. Immunoprecipitated ACE2 was eluted in 1% SDS solution and precipitated using methanol-chloroform. Dried pellets were dissolved in 8 M urea/100 mM triethylammonium bicarbonate (TEAB, pH 8.5). Samples were diluted to 2 M urea/100 mM TEAB, and proteins were trypsin digested overnight at 37° C. The digested ACE2 peptides were enriched a second time by biotin-avidin affinity to enrich biotinylated peptides representing the initial SNO sites. After avidin enrichment, peptides were eluted by reduction using tris(2-carboxyethyl)phosphine (TCEP).
Sequence of ACE2 (Q9BYF1 18-805): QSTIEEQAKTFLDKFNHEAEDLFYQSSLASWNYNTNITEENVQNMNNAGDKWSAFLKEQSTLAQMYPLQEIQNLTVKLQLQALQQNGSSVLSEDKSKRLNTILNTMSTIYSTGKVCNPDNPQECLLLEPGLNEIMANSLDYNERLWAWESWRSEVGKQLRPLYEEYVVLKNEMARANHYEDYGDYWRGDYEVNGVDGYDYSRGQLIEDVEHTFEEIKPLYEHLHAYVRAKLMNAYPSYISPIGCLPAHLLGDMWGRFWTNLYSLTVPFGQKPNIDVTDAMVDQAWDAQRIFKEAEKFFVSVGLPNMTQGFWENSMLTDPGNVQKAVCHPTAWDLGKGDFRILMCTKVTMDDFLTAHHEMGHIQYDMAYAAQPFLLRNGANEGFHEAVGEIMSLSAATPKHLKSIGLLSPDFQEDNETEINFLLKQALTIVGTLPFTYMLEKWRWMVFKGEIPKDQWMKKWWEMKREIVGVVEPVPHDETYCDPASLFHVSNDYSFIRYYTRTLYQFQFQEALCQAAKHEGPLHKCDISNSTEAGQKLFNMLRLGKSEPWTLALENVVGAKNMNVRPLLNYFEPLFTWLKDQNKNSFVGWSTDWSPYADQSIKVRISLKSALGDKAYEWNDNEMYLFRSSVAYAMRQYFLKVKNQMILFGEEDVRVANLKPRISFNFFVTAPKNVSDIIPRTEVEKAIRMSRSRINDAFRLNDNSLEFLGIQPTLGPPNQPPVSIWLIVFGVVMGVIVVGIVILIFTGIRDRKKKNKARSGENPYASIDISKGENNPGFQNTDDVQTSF
Samples were analyzed on a Thermo Orbitrap Eclipse mass spectrometer (Thermo). Samples were injected directly onto a 25 cm, 100 μm ID column packed with ethylene bridged hybrid (BEH) 1.7 μm C18 resin (Waters). Samples were separated at a flow rate of 300 nl/min on a nLC 1200 (Thermo) using a gradient of solution A (0.1% formic acid in water, 5% acetonitrile) and solution B (80% acetonitrile/0.1% formic acid). Specifically, a gradient of 1-25% B over 100 min, an increase to 40% B over 20 min, an increase to 100% B over another 10 min and held at […] for a 10 min was used for a 140 min total run time. […]

[2] abbreviates: Severe acute respiratory syndrome coronavirus 2, HeLa-ACE2, 24 h.

Sequence of SARS-CoV-2 envelope (E) protein (P0DTC4 whole entry, looked up): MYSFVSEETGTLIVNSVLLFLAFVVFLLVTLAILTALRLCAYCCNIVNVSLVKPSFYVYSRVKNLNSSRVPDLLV

Consider `Cc1cccc(/C=N/Nc2cc(N3CCOCC3)nc(OCCc3ccccn3)n2)c1` [Apilimod], for which the “Selectivity Index CC50/EC50” value with SARS-CoV-2 is on record as more than 332.11. Moreover, a half-maximal response with SARS-CoV-2 (setting [2]) (EC50) required 0.0072 µM.

For the compound `CC12CC3CC(C)(C1)CC(N)(C3)C2` [NMT1, memantine], the “Selectivity Index CC50/EC50” value with SARS-CoV-2 was found to be 2.69. In addition, in the series on SARS-CoV-2 (setting [2]), a half-maximal effect (EC50) was put at 53.9 µM. The “Inhibition of E protein voltage-dependent K+ current” value in series [1] was “inhibited in a dose-dependent manner”.

On to `CCC12CC3CC(N)(C1)CC(CO[N+](=O)[O-])(C3)C2` (stereo not shown) [NMT2], for which a half-maximal effect in the series on SARS-CoV-2 (EC50) was put at 21.9 µM. Further, the CC50 (host cell cytotoxicity) in the series with HeLa-ACE2 cells stood at 122 µM.

As to `NC12CC3CC(CC(C3)C1)C2` [NMT4, amantadine], the “Selectivity Index CC50/EC50” value with SARS-CoV-2 is more than 2.86. Also, the EC50 with SARS-CoV-2 (setting [2]) worked out at 70 µM.

Consider `CC12CC3(C)CC(CCN)(C1)CC(CO[N+](=O)[O-])(C2)C3` [NMT6], for which, in the series on SARS-CoV-2, it took 3.32 µM to reach a half-maximal effect (EC50). Further, the CC50 (host cell cytotoxicity) in the series on HeLa-ACE2 cells came out at 10.5 µM.

In the series with SARS-CoV-2, `NCC1(c2cccc(O[N+](=O)[O-])c2)C2CC3CC(C2)CC1C3` (stereo not shown) [NMT7] registered an EC50 of 90.7 µM. The CC50 (host cell cytotoxicity) in the series on HeLa-ACE2 cells is more than 200 µM.

As to `CCC(O[N+](=O)[O-])C12CC3(C)CC(C)(CC(CCN)(C3)C1)C2` (stereo not shown) [NMT8], the EC50 in the series with SARS-CoV-2 amounted to 3.75 µM. The CC50 (host cell cytotoxicity) in the series with HeLa-ACE2 cells was 8.37 µM.

`CC12CC3(C)CC(CN)(C1)CC(O[N+](=O)[O-])(C2)C3` [NMT9] returned an EC50 with SARS-CoV-2 of more than 200 µM. Further, the CC50 (host cell cytotoxicity) in the series with HeLa-ACE2 cells is more than 200 µM.

Take `COc1ccc(C[C@H](N)C(=O)N[C@H]2[C@@H](O)[C@H](n3cnc4c(N(C)C)ncnc43)O[C@@H]2CO)cc1` [Puromycin]: the “Selectivity Index CC50/EC50” value with SARS-CoV-2 worked out at 0.728. In the series on SARS-CoV-2 (setting [2]), this compound showed an EC50 of 0.617 µM.

As to `CCC(CC)COC(=O)[C@H](C)N[P@](=O)(OC[C@H]1O[C@@](C#N)(c2ccc3c(N)ncnn23)[C@H](O)[C@@H]1O)Oc1ccccc1` [Remdesivir], the “Selectivity Index CC50/EC50” value in the series on SARS-CoV-2 is more than 16.94. This compound showed an EC50 with SARS-CoV-2 (setting [2]) of 0.142 µM.

For `N[C@@H](CSN=O)C(=O)O` [SNOC], the “S-nitrosylated ACE2 sites by mass spectrometry” value on ACE2 was “S-nitrosylated ACE2 at Cys^261 and Cys^496”.

A word on the EC50: it is the midpoint of the concentration-response curve. The low end stands for greater potency, the high end for weaker potency.
